From US20230051589A1, “COMPOUNDS AND COMPOSITIONS FOR TREATING CONDITIONS ASSOCIATED WITH NLRP ACTIVITY” (Novartis AG, priority 2018, published 2023) come the findings set out here.

One test concerns IL-1β production in PMA-differentiated THP-1 cells. The test is described as follows: IL-1β production in PMA-differentiated THP-1 cells stimulated with gramicidin (hTHP-1 assay, 2% fetal bovine serum; Procedures 1-3). The settings on record: Homo sapiens, THP-1, Table B3; hTHP-1 assay containing 2% fetal bovine serum, gramicidin stimulation, IL-1β readout; read-out: hTHP-1 IC50. In kind it is cell-based, human. In a few lines: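 PMA-primed THP-1 cells (20 ng/ml PMA, 16-18 h) in RPMI with 2% FBS were pre-incubated with compounds for 1 h, from 100 μM downward in 3-fold steps (0.37% DMSO final), then stimulated with 5 μM gramicidin for 2 h. IL-1β in the supernatant was quantified by HTRF.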
Take `CN1CCCC(c2ccc(S(N)(=O)=NC(=O)Nc3c4c(cc5c3CC5)CCC4)c(F)c2)C1` (single isomer, unassigned) [Example 862, (R, R) or (S, R)-2-fluoro-4-(1-methylpiperidin-3-yl)-N′-((2,4,5,6-tetrahydro-1H-cyclobuta[f]inden-3-yl)carbamoyl)benzenesulfonimidamide]: the IC50 (as a rule, the concentration needed to halve the response being measured) lay within 1000 to 5000 nM.

The same test, now with this note: Table B3; hTHP-1 assay containing 2% fetal bovine serum, gramicidin stimulation, IL-1β readout; read-out: hTHP-1 IC50.
Consider `COC1CCc2c(csc2S(N)(=O)=NC(=O)Nc2c3c(cc4c2CCC4)CCC3)C1` (single isomer, unassigned) [Example 851, (R, R) or (S, R)-N′-((1,2,3,5,6,7-hexahydro-s-indacen-4-yl)carbamoyl)-5-methoxy-4,5,6,7-tetrahydrobenzo[c]thiophene-1-sulfonimidamide], for which the 50% inhibitory concentration (IC50) lay in the range of 200 to 1000 nM. Still for that read-out and setting: for `COC1CCc2c(csc2S(N)(=O)=NC(=O)Nc2c3c(cc4c2CCC4)CCC3)C1` (single isomer, unassigned) [Example 852, (S, R) or (R, R)-N′-((1,2,3,5,6,7-hexahydro-s-indacen-4-yl)carbamoyl)-5-methoxy-4,5,6,7-tetrahydrobenzo[c]thiophene-1-sulfonimidamide] the value was 1000 to 5000 nM. The same measure, in the same setting: for `COC1CCc2c(csc2S(N)(=O)=NC(=O)Nc2c3c(cc4c2CCC4)CCC3)C1` (single isomer, unassigned) [Example 853, (R, S) or (S, S)-N′-((1,2,3,5,6,7-hexahydro-s-indacen-4-yl)carbamoyl)-5-methoxy-4,5,6,7-tetrahydrobenzo[c]thiophene-1-sulfonimidamide] the value was above 30000 nM. Same read-out and setting: for `COC1CCc2c(csc2S(N)(=O)=NC(=O)Nc2c3c(cc4c2CCC4)CCC3)C1` (single isomer, unassigned) [Example 854, (S, S) or (R, S)-N′-((1,2,3,5,6,7-hexahydro-s-indacen-4-yl)carbamoyl)-5-methoxy-4,5,6,7-tetrahydrobenzo[c]thiophene-1-sulfonimidamide] the value was 5000 to 30000 nM. Regarding `COC1CCc2csc(S(N)(=O)=NC(=O)Nc3c4c(cc5c3CCC5)CCC4)c2C1` (single isomer, unassigned) [Example 855, (R, S) or (S, S)-N′-((1,2,3,5,6,7-hexahydro-s-indacen-4-yl)carbamoyl)-6-methoxy-4,5,6,7-tetrahydrobenzo[c]thiophene-1-sulfonimidamide], the IC50 was above 30000 nM.

Regarding `COC1CCc2csc(S(N)(=O)=NC(=O)Nc3c4c(cc5c3CCC5)CCC4)c2C1` (single isomer, unassigned) [Example 856, (S, S) or (R, S)-N′-((1,2,3,5,6,7-hexahydro-s-indacen-4-yl)carbamoyl)-6-methoxy-4,5,6,7-tetrahydrobenzo[c]thiophene-1-sulfonimidamide], the concentration for half-maximal inhibition (IC50) was above 30000 nM. Take `COC1CCc2csc(S(N)(=O)=NC(=O)Nc3c4c(cc5c3CCC5)CCC4)c2C1` (single isomer, unassigned) [Example 857, (R, R) or (S, R)-N′-((1,2,3,5,6,7-hexahydro-s-indacen-4-yl)carbamoyl)-6-methoxy-4,5,6,7-tetrahydrobenzo[c]thiophene-1-sulfonimidamide]: the IC50 fell in the range of 1000 to 5000 nM. For the compound `COC1CCc2csc(S(N)(=O)=NC(=O)Nc3c4c(cc5c3CCC5)CCC4)c2C1` (single isomer, unassigned) [Example 858, (S, R) or (R, R)-N′-((1,2,3,5,6,7-hexahydro-s-indacen-4-yl)carbamoyl)-6-methoxy-4,5,6,7-tetrahydrobenzo[c]thiophene-1-sulfonimidamide], the IC50 fell in the range of 5000 to 30000 nM.

With `CN1CCCC(c2ccc(S(N)(=O)=NC(=O)Nc3c4c(cc5c3CC5)CCC4)c(F)c2)C1` (single isomer, unassigned) [Example 859, (S, R) or (R, R)-2-fluoro-4-(1-methylpiperidin-3-yl)-N′-((2,4,5,6-tetrahydro-1H-cyclobuta[f]inden-3-yl)carbamoyl)benzenesulfonimidamide], the half-inhibitory concentration (IC50) lay within 1000 to 5000 nM. With `CN1CCCC(c2ccc(S(N)(=O)=NC(=O)Nc3c4c(cc5c3CC5)CCC4)c(F)c2)C1` (single isomer, unassigned) [Example 860, (R, S) or (S, S)-2-fluoro-4-(1-methylpiperidin-3-yl)-N′-((2,4,5,6-tetrahydro-1H-cyclobuta[f]inden-3-yl)carbamoyl)benzenesulfonimidamide], the IC50 was above 30000 nM. The same measure, in the same setting: for `CN1CCCC(c2ccc(S(N)(=O)=NC(=O)Nc3c4c(cc5c3CC5)CCC4)c(F)c2)C1` (single isomer, unassigned) [Example 861, (S, S) or (R, S)-2-fluoro-4-(1-methylpiperidin-3-yl)-N′-((2,4,5,6-tetrahydro-1H-cyclobuta[f]inden-3-yl)carbamoyl)benzenesulfonimidamide] the value was above 30000 nM; for `NS(=O)(=NC(=O)Nc1c2c(cc3c1CCC3)CCC2)c1ccc(C2CCN2)cc1` (single isomer, unassigned) [Example 864, (R, S) or (S, S)-4-(azetidin-2-yl)-N′-((1,2,3,5,6,7-hexahydro-5-indacen-4-yl)carbamoyl)benzenesulfonimidamide], 5000 to 30000 nM. `NS(=O)(=NC(=O)Nc1c2c(cc3c1CCC3)CCC2)c1ccc(C2CCN2)cc1` (single isomer, unassigned) [Example 865, (S, S) or (R, S)-4-(azetidin-2-yl)-N′-((1,2,3,5,6,7-hexahydro-s-indacen-4-yl)carbamoyl)benzenesulfonimidamide]: the IC50 was 5000 to 30000 nM.

Take `CN[C@H](c1ccc(S(N)(=O)=NC(=O)Nc2c3c(cc4c2CC4)CCC3)s1)C1CC1` (single isomer, unassigned) [Example 866, (S, R) or (R, R)-5-(cyclopropyl(methylamino)methyl)-N′-((2,4,5,6-tetrahydro-1H-cyclobuta[f]inden-3-yl)carbamoyl)thiophene-2-sulfonimidamide]: the half-maximal inhibitory concentration (IC50) is 8 to 40 nM. On the same count and under the same terms, next, `CN[C@H](c1ccc(S(N)(=O)=NC(=O)Nc2c3c(cc4c2CC4)CCC3)s1)C1CC1` (single isomer, unassigned) [Example 867, (S, S) or (R, S)-5-(cyclopropyl(methylamino)methyl)-N′-((2,4,5,6-tetrahydro-1H-cyclobuta[f]inden-3-yl)carbamoyl)thiophene-2-sulfonimidamide]: 1000 to 5000 nM. Still for that read-out and setting: next, `CN[C@H](c1ccc(S(N)(=O)=NC(=O)Nc2c3c(cc4c2CC4)CCC3)s1)C1CC1` (single isomer, unassigned) [Example 868, (R, R) or (S, R)-5-(cyclopropyl(methylamino)methyl)-N′-((2,4,5,6-tetrahydro-1H-cyclobuta[f]inden-3-yl)carbamoyl)thiophene-2-sulfonimidamide]: 8 to 40 nM; `CN[C@H](c1ccc(S(N)(=O)=NC(=O)Nc2c3c(cc4c2CC4)CCC3)s1)C1CC1` (single isomer, unassigned) [Example 869, (R, S) or (S, S)-5-(cyclopropyl(methylamino)methyl)-N′-((2,4,5,6-tetrahydro-1H-cyclobuta[f]inden-3-yl)carbamoyl)thiophene-2-sulfonimidamide]: 200 to 1000 nM; `CNCc1csc(S(N)(=O)=NC(=O)Nc2c3c(cc4c2CC4)CCC3)c1F` (single isomer, unassigned) [Example 870, (R) or (S) -3-fluoro-4-((methylamino)methyl)-N′-((2,4,5,6-tetrahydro-1H-cyclobuta[f]inden-3-yl)carbamoyl)thiophene-2-sulfonimidamide]: 40 to 200 nM.

On to `CNCc1csc(S(N)(=O)=NC(=O)Nc2c3c(cc4c2CC4)CCC3)c1F` (single isomer, unassigned) [Example 871, (S) or (R) -3-fluoro-4-((methylamino)methyl)-N′-((2,4,5,6-tetrahydro-1H-cyclobuta[f]inden-3-yl)carbamoyl)thiophene-2-sulfonimidamide], for which the IC50 lay in the range of 1000 to 5000 nM. Still for that read-out and setting: next, `NS(=O)(=NC(=O)Nc1c2c(cc3c1CC3)CCC2)c1cc2c(s1)CCN(CC(F)F)C2` (single isomer, unassigned) [Example 872, (R) or (S) -5-(2,2-difluoroethyl)-N′-((2,4,5,6-tetrahydro-1H-cyclobuta[f]inden-3-yl)carbamoyl)-4,5,6,7-tetrahydrothieno[3,2-c]pyridine-2-sulfonimidamide]: 1000 to 5000 nM. Still for that read-out and setting: next, `NS(=O)(=NC(=O)Nc1c2c(cc3c1CC3)CCC2)c1cc2c(s1)CCN(CC(F)F)C2` (single isomer, unassigned) [Example 873, (S) or (R) -5-(2,2-difluoroethyl)-N′-((2,4,5,6-tetrahydro-1H-cyclobuta[f]inden-3-yl)carbamoyl)-4,5,6,7-tetrahydrothieno[3,2-c]pyridine-2-sulfonimidamide]: above 30000 nM; `NS(=O)(=NC(=O)Nc1c2c(cc3c1CC3)CCC2)c1cc2c(s1)CCN[C@@H]2C(F)F` (single isomer, unassigned) [Example 874, (R or S,4S)-4-(difluoromethyl)-N′-((2,4,5,6-tetrahydro-1H-cyclobuta[f]inden-3-yl)carbamoyl)-4,5,6,7-tetrahydrothieno[3,2-c]pyridine-2-sulfonimidamide]: 40 to 200 nM.

For the compound `NS(=O)(=NC(=O)Nc1c2c(cc3c1CC3)CCC2)c1cc2c(s1)CCN[C@@H]2C(F)F` (single isomer, unassigned) [Example 875, (S or R,4S)-4-(difluoromethyl)-N′-((2,4,5,6-tetrahydro-1H-cyclobula[f]inden-3-yl)carbamoyl)-4,5,6,7-tetrahydrothieno[3,2-c]pyridine-2-sulfonimidamide], the IC50 fell in the range of 1000 to 5000 nM. The same measure, in the same setting: for `NS(=O)(=NC(=O)Nc1c2c(cc3c1CC3)CCC2)c1cc2c(s1)CCN[C@H]2C(F)F` (single isomer, unassigned) [Example 876, (R or S,4R)-4-(difluoromethyl)-N′-((2,4,5,6-tetrahydro-1H-cyclobuta[f]inden-3-yl)carbamoyl)-4,5,6,7-tetrahydrothieno[3,2-c]pyridine-2-sulfonimidamide] the value was 40 to 200 nM.
